# Reference: US11059823B2, “Small molecule inhibitors of the JAK family of kinases” (Janssen Pharmaceutica NV, priority 2016, dated 2021)
# Like-named read-outs stand apart in the source and are kept apart here.
# How the values were obtained:
# JAK1-JH1JH2 = JAK1-JH1JH2 (Homo sapiens (Human), UniProt P23458); experiment: Enzymatic inhibition assay (HTMS), JAK1; assay type: biochemical; conditions: 12.5 μM ATP; read-out: JAK1_JH1JH2 IC50
# From the text: (§1) JAK1-JH1JH2 (574-1154 with a His-GST Tag and a C-terminal tev (ENLYFQ-G) cleavage site), JAK3-JH1JH2 (512-1124 with a GST Tag and a C-terminal tev (ENLYFQ-G) cleavage site), and Tyk2-JH1JH2 (8H_tev_580-1182-C936A-C1142A with a C-terminal tev (ENLYFQ-G) cleavage site) were purified internally. […] LC/MS grade water and acetonitrile (ACN), were purchased from HoneyWell, Burdick & Jackson (Muskegon, Mich., USA). Dimethylsulfoxide 99.8% (DMSO) and trifluoroacetic acid 99.5% (TFA) were purchased from EMD Chemical (Gibbstown, N.J., USA). Adenosine triphosphate (ATP), 4-morpholinepropanesulfonic acid (MOPS), magnesium chloride (MgCl2), ethylenediaminetetraacetic acid (EDTA), dithiothreitol (DTT), formic acid >95% (FA) and Tween-20 were purchased from Sigma (St Louis, Mo., USA). 384-well polypropylene plates, Cat#781280 were purchased from Greiner (Monroe, N.C.), RapidFire™ cartridge A C4 Column (Agilent Technologies, Santa Clara, Calif.). […]
# (§2) 11-point dosing series were made for each compound by serially diluting 1:3 or 1:4 in DMSO, with point 12 being a DMSO control. […] Compound inhibition was assessed by a decrease of the phosphorylated product levels in sample wells compared to the non-inhibited enzyme reaction. […]
# JAK2-JH1JH2 = JAK2-JH1JH2 (Homo sapiens (Human), UniProt O60674); experiment: Enzymatic inhibition assay (HTMS), JAK2; assay type: biochemical; conditions: 30 μM ATP; read-out: JAK2_I_JH1JH2 IC50
# From the text: as §1, §2
# [1] = Plasma and colon concentrations after p.o. dosing (Protocols 1 and 2); assay type: in vivo, female C57BL/6 mice; conditions: female, C57BL/6, mouse, po, mice, 25 mg/kg p.o.
# Procedure: These protocols are described below under the heading In vivo Studies.
# (§3) Three non-fasted female C57BL/6 mice were orally administered test compound at a dose of 25 mg/kg p.o. as a solution in 20% hydroxypropyl-beta-cyclodextrin (HPβCD) at a dose volume of 5 mL/kg. Blood samples were collected at 0.5, 2, and 4 h post dose via retro-orbital bleed or venipuncture of the dorsal metatarsal vein. Blood samples were collected into tubes containing anticoagulant (Heparin-Na) and placed on wet ice. The plasma fraction was separated by centrifugation and frozen at −20° C. for up to 4 h and −80° C. after 4 h unless analyzed shortly after sample collection. Colon samples were collected at 4 h post dose. From the beginning of the cecum, a 4-6 cm sample of the colon was dissected, cut open on the longitudinal axis, and the solid contents removed by flushing with 2 mL of saline. The colon was further washed by putting it in 5 mL of saline and shaken for 5 seconds. The colon sample was then patted dry, weighed, and homogenized as 1 part tissue (g) to 4 parts HPLC grade water (mL). Concentrations of the compound in plasma and colon homogenate were determined using a qualified liquid chromatography-triple quadrupole mass spectrometry (LC-MS/MS) method.
# as §3, with “HPβCD” for “hydroxypropyl-beta-cyclodextrin (HPβCD)”, “or” for “or venipuncture of the”, “2 cm below” for “the beginning of”, “4” for “4-6”
# Tyk2-JH1JH2 = Tyk2-JH1JH2 (Homo sapiens (Human), UniProt P29597, C1142A/C936A); experiment: Enzymatic inhibition assay (HTMS), Tyk2; assay type: biochemical; conditions: 50 μM ATP; read-out: Tyk2_I_JH1JH2 IC50
# From the text: as §1, §2
# Chain of Tyk2-JH1JH2 (P29597 580-1182 C936A/C1142A): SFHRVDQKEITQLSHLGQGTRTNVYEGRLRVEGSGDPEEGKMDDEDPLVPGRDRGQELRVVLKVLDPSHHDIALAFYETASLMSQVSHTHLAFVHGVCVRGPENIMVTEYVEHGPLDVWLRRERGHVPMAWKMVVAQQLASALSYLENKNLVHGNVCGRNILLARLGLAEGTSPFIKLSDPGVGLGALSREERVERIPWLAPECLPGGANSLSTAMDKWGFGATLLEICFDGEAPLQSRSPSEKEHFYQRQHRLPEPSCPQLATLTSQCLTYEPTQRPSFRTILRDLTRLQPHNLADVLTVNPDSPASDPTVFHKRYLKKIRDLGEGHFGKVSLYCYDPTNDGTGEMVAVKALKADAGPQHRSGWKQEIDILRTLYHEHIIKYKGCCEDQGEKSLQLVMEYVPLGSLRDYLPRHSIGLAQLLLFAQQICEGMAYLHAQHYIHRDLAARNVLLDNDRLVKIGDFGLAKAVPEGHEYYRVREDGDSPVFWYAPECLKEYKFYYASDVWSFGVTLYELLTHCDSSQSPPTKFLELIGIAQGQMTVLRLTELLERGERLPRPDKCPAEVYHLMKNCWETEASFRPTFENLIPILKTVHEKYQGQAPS
# Chain of JAK2-JH1JH2 (O60674 532-1132): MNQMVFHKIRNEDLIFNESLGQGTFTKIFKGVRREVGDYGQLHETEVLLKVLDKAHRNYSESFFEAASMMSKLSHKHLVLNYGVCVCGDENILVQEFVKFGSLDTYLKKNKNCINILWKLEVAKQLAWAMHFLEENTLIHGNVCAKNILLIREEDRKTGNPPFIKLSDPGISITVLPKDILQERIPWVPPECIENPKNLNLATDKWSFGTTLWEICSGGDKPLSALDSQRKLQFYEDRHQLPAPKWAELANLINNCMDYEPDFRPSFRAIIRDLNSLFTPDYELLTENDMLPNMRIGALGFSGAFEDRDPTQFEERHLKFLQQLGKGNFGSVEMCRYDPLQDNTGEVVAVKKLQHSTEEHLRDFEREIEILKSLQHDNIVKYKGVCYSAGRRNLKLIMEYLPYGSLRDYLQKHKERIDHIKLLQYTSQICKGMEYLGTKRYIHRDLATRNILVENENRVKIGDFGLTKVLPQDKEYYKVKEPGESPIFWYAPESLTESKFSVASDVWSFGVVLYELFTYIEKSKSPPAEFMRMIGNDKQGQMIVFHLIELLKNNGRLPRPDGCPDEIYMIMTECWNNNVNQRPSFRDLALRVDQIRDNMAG
# Chain of JAK1-JH1JH2 (P23458 574-1154): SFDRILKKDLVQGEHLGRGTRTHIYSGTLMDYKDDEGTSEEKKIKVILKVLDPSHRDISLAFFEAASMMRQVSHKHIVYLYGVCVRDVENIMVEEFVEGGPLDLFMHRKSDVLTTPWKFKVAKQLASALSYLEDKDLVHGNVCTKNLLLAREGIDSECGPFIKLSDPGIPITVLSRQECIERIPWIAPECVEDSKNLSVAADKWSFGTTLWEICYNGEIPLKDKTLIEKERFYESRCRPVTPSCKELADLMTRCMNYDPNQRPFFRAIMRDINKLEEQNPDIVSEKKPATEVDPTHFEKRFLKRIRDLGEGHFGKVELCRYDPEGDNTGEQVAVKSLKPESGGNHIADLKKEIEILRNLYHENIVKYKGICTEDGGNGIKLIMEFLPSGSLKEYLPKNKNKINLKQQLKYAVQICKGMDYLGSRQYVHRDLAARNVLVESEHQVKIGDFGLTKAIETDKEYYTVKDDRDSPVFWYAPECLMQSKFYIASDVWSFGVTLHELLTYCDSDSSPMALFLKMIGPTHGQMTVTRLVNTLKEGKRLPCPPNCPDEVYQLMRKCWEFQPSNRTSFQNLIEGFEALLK
smiles,measurement,setting,value
"N#CC[C@H]1CC[C@H](n2c(-c3c[nH]cn3)nc3cnc4[nH]ccc4c32)CC1 [Ex. 2, 2-((1r,4r)-4-(2-(1H-Imidazol-4-yl)imidazo[4,5-d]pyrrolo[2,3-b]pyridin-1(6H)-yl)cyclohexyl)acetonitrile]",IC50,JAK1-JH1JH2,0.2 nM
same,IC50,JAK2-JH1JH2,1 nM
same,concentration at 4 h,"[1]; colon, read-out: Colon Concentration After p.o. Dosing, Mean",7600 ng/g
same,concentration at 0.5 h,"[1]; plasma, Time = 0.5 h",24.5 ng/mL
same,concentration at 2 h,"[1]; plasma, Time = 2 h",4.2 ng/mL
same,concentration at 4 h,"[1]; plasma, read-out: Plasma Concentration After p.o. Dosing, Mean",1.3 ng/mL
same,IC50,Tyk2-JH1JH2,1.5 nM
